Data on 16 molecules can be found in ChEMBL document CHEMBL1821558, “Toward potent α-glucosidase inhibitors based on xanthones: a closer look into the structure-activity correlations” (Eur J Med Chem, 2011).

Each structure is given as a SMILES string. Activity calls are given as the source filed them. No cut-off for these calls is given here.

A short description of test [1]: Inhibition of yeast alpha-glucosidase using PNP glycoside as substrate after 30 mins by spectrophotometry. Details: species or system Saccharomyces cerevisiae.
Test [2] can be described thus: Non competitive inhibition of yeast alpha-glucosidase using PNP glycoside as substrate preincubated for 30 mins by Lineweaver-Burk plot analysis. Details: species or system Saccharomyces cerevisiae.
For test [3], the system named is Saccharomyces cerevisiae. Put plainly: Non competitive inhibition of yeast alpha-glucosidase using PNP glycoside as substrate at 15.3 uM preincubated for 30 mins by Lineweaver-Burk plot analysis.
For test [4], the system named is Saccharomyces cerevisiae. Put plainly: Ratio of 1,3,6,8-tetrahydroxy-9H-xanthen-9-one IC50 to compound IC50 for yeast alpha-glucosidase.
The test system of test [5] is Saccharomyces cerevisiae. Put plainly: Non competitive inhibition of yeast alpha-glucosidase using PNP glycoside as substrate at 34.8 uM preincubated for 30 mins by Lineweaver-Burk plot analysis.
For test [6], the system named is Saccharomyces cerevisiae. Put plainly: Ratio of 1,3-dihydroxy-7-methyl-9H-xanthen-9-one IC50 to compound IC50 for yeast alpha-glucosidase.
In test [7] the test system is Saccharomyces cerevisiae. Put plainly: Ratio of 1,3-dihydroxy-9H-xanthen-9-one IC50 to compound IC50 for yeast alpha-glucosidase.
Test [8] has as its system Saccharomyces cerevisiae. Put plainly: Non competitive inhibition of yeast alpha-glucosidase using PNP glycoside as substrate at 25.4 uM preincubated for 30 mins by Lineweaver-Burk plot analysis.
In test [9] the test system is Saccharomyces cerevisiae. Put plainly: Ratio of 1,3,6-trihydroxy-9H-xanthen-9-one IC50 to compound IC50 for yeast alpha-glucosidase.

Turning to `O=c1c2c(O)cc(O)cc2oc2cc(O)c(-c3c(O)ccc4ccccc34)c(O)c12`, the IC50 in test [1] was determined as 8.1 µM. In test [2], this molecule registered a Ki of 29.2 µM. In addition, the inhibition result with Saccharomyces cerevisiae [3] is “Active”. In the test on Saccharomyces cerevisiae [4], the Ratio IC50 is 2.
As to `O=c1c2ccccc2oc2c(-c3c(O)ccc4ccccc34)c(O)c(-c3c(O)ccc4ccccc34)c(O)c12`, in test [1], half-maximal inhibition (IC50) was put at 10.1 µM.
In test [1], `Cc1ccc2oc3cc(O)c(-c4c(O)ccc5ccc(O)cc45)c(O)c3c(=O)c2c1` displayed an IC50 of 112 µM.
`O=c1c2c(O)cc(O)cc2oc2cc(O)cc(O)c12`: 17.2 µM corresponded to half-maximal inhibition in test [1] (IC50). The molecule also displayed a Ki in test [2] of 62.8 µM. The inhibition result in the test on Saccharomyces cerevisiae [5] is “Active”.
In test [1], `O=c1c2ccccc2oc2cc(O)cc(O)c12` gave an IC50 of 161 µM.
Molecule `Cc1ccc2oc3cc(O)c(-c4c(O)ccc5ccccc45)c(O)c3c(=O)c2c1` gave an IC50 in test [1] of 26.5 µM. The Ratio IC50 in the test on Saccharomyces cerevisiae [6] came to 2.
As to `Cc1ccc2oc3c(-c4c(O)ccc5ccccc45)c(O)c(-c4c(O)ccc5ccccc45)c(O)c3c(=O)c2c1`, the half-inhibitory concentration (IC50) in [1] was 6.4 µM.
Turning to `O=c1c2ccccc2oc2cc(O)c(-c3c(O)ccc4ccccc34)c(O)c12`, the IC50 in test [1] came out at 47.7 µM. Moreover, the Ratio IC50 in the test with Saccharomyces cerevisiae [7] is 2.
With `O=c1c2c(O)cc(O)cc2oc2cc(O)c(-c3c(O)ccc4ccc(O)cc34)c(O)c12`, the IC50 in test [1] was found to be 17.4 µM. This molecule also came in with a Ki in test [2] of 50.9 µM. Also, the inhibition entry in the test on Saccharomyces cerevisiae [8] is “Active”.
`Cc1ccc2oc3cc(O)cc(O)c3c(=O)c2c1` showed an IC50 in [1] above 200 µM.
On the same count and under the same terms, next, `O=c1c2ccc(O)cc2oc2cc(O)cc(O)c12`: 41.5 µM.
`O=c1c2ccccc2oc2cc(O)c(-c3c(O)ccc4ccc(O)cc34)c(O)c12` registered an IC50 in test [1] of 75.4 µM.
On the same count and under the same terms, next, `O=c1c2ccc(O)cc2oc2cc(O)c(-c3c(O)ccc4ccc(O)cc34)c(O)c12`: 47.6 µM.
The molecule `O=c1c2ccc(O)cc2oc2cc(O)c(-c3c(O)ccc4ccccc34)c(O)c12` gave an IC50 in test [1] of 10.5 µM. Moreover, the Ratio IC50 in the test on Saccharomyces cerevisiae [9] turned out to be 2.
On to `O=c1c2ccc(O)cc2oc2c(-c3c(O)ccc4ccccc34)c(O)c(-c3c(O)ccc4ccccc34)c(O)c12`, for which, in test [1], the IC50 came out at 6.2 µM. This lies in the single-digit micromolar range.
For the molecule `OC[C@H]1NC[C@H](O)[C@@H](O)[C@@H]1O` [DUVOGLUSTAT], in test [1], the IC50 stood at 40 µM. Against the preceding molecule, the IC50 is about 6.5-fold higher.

As usually defined, the IC50 is the midpoint of a concentration-inhibition curve. A high value points to weaker potency. The Ki is the dissociation constant of the complex between target and ligand, obtained from inhibition or displacement. Read a high Ki as weaker binding.
